Reference: patent US20210094899A1, “ACRYLIC ACID ANALOGS” (Recurium IP Holdings, LLC, priority 2017, published 2021)
One block for each molecule: values may come before it.

Legend:
[1] = test system: MCF7 cells; assay: Breast cancer cell proliferation assay (MCF-7), Cell Titer-Glo; assay type: cell-based; details: Homo sapiens, 120 h, 5 days of compound exposure
Protocol: Breast Cancer Cell Proliferation Assay (MCF-7)
MCF7 cells were expanded and maintained in DMEM (Hyclone SH30272.01, Phenol red free) with NEAA (Gibco11140-050), Na-pyruvate (Gibco 11360-070) and Re-stripped Charcoal stripped FBS (Gemini 100-119)). The cells were adjusted to a concentration of 3,000 cells per mL and incubated (37° C., 5% CO2). The following day a 10 point, serial dilution of compounds was added to the cells at a final concentration ranging from 10 μM to 0.000005 μM for test compounds (17β-estradiol was used as a control). Additional cells were plated in 30 wells to serve as the day 1 (pretreatment) comparison. After 5 days of compound exposure, Cell Titer-Glo reagent was added to the cells and the relative luminescence units (RLUs) of each well was determined Cell Titer-Glo was also added to 32 μL of medium without cells to obtain a background value. The plates were allowed to incubate at room temperature for 10 minutes to stabilize luminescent signal and the luminescence signal was recorded with EnSpire. The relative increase in cell number of each sample is determined as follows: (RLU sample-RLU background/RLU estrogen only treated cells-RLU background)×100=[…].

[2] = target: T1, ESR1 protein (estrogen receptor alpha) (Homo sapiens, UniProt P03372); assay: ER degradation determination by Western blot in MCF-7 cells; assay type: cell-based; details: 10 μM, 18-24 hours
T1 construct: After incubating cells with the indicated compounds for 18-24 hours, cell lysates were prepared; endogenous in cells; host or cells: MCF-7
T1 sequence (P03372 1-595): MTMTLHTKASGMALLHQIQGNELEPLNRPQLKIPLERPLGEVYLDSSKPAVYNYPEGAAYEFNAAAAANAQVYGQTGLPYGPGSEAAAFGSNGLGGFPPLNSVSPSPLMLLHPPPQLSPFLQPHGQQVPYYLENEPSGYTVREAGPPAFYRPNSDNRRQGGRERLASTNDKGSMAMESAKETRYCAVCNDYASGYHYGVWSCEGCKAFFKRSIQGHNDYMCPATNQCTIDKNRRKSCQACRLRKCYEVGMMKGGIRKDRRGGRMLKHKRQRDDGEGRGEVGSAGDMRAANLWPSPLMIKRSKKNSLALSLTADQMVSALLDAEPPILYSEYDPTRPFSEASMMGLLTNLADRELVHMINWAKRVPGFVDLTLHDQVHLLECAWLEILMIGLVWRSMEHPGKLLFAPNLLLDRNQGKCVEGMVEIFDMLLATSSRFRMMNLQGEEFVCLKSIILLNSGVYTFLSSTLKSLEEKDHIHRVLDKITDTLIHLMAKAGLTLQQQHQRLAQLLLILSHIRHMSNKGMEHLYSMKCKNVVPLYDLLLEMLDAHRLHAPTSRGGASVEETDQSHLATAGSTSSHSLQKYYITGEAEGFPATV
Protocol: ER Degradation Determination by Western Blot
MCF-7 cells were plated at 0.3 million cells/mL (3 mL/well) in 6-well plates in experiment media and incubated at 37° C., 5% CO2 for 48 hours. A 10× solution of compounds were made in DMSO and added the solution to the cells to achieve a final concentration of 10 μM. A DMSO control was included to enable a determination of the relative efficacy of test compounds. […] After incubating cells with the indicated compounds for 18-24 hours, cell lysates were prepared (2× Cell lysis buffer: 100 mM Tris, pH 8, 300 mM NaCl, 2% NP40, 1% Na deoxycholate, 0.04% SDS and 2 mM EDTA) and mixed thoroughly and incubated on ice. The protein concentration was quantified using BCA kit. […] The gel was then transferred onto a nitrocellulose membrane. […] GAPDH protein was used as an internal control.

[3] = target: T2, ERα (ESR1 protein) (Homo sapiens, UniProt P03372); assay: ERα EC50 determination (Western blot band density, MCF-7 cells); assay type: cell-based; details: 18-24 hours, ERα degradation
T2 construct: After incubating cells with the indicated compounds for 18-24 hours, cell lysates were prepared; endogenous in cells; host or cells: MCF-7
T2 sequence (P03372 1-595): T1 sequence (P03372 1-595)
Excerpt: A DMSO control was included to enable a determination of the relative efficacy of test compounds. […] The protein concentration was quantified using BCA kit.

[4] = Pharmacokinetic determination in mice; assay type: in vivo, female CD mice; details: mouse
Protocol: (§1) Pharmacokinetic Determination
(§2) Grouping female CD mice weighing 20-30 g or female SD rats weighing 200-300 g randomly to two groups; one group was administered with test compound at a dose of 3.0 mg/kg by intravenous injection, the other group was administered with test compound at a dose of 10.0 mg/kg orally. The formulation for IV groups were DMSO/PEG400/150 mM glycine (pH 9) (5/10/85) and the formulation for PO groups were PEG400/PVP/Tween 80/0.5% CMC in water (9/0.5/0.5/90). After administering, blood samples of intravenous injection group were collected at time points of predose, 0.0833, 0.25, 0.5, 1, 2, 4, 8, 12 and 24 h; blood samples of oral group were collected at time points of predose, 0.25, 0.5, 1, 2, 4, 8, 12, and 24 h. Standard curve was plotted based on concentrations of the samples in a suitable range, the concentrations of test compounds in plasma samples were determined by using LC-MS/MS. Pharmacokinetic parameters were calculated according to drug concentration-time curve using a noncompartmental method by WinNonLin (Phoenix™, version 6.1) or other similar software.

[5] = Pharmacokinetic determination in rats; assay type: in vivo, female SD rats; details: rat
Protocol: as §1, §2

[6] = target: T3, estrogen receptor (Homo sapiens, UniProt P03372); details: 500 mg monthly dose; cited from earlier work
T3 sequence (P03372 1-595): T1 sequence (P03372 1-595)

[7] = female, CD, plasma, IV, 3.0 mg/kg
[8] = female, CD, plasma, PO, 10.0 mg/kg
[9] = female, SD, plasma, IV, 3.0 mg/kg
[10] = female, SD, plasma, PO, 10.0 mg/kg

IC50 [1]: ≤ 25 nM
Compound: CC/C(=C(/c1ccc(/C=C/C(=O)O)cc1)c1ccc2[nH]ncc2c1)c1ccc(F)cc1Cl [ARN810]

IC50 [1]: ≤ 25 nM | ERα % degradation [2]: A (ERα % degradation ≥ 80%)
Compound: C[C@@H]1Cc2c([nH]c3ccccc23)[C@@H](c2c(F)cc(/C=C/C(=O)O)cc2F)N1CC(C)(C)F [AZD9496]

IC50 [1]: ≤ 25 nM | ERα % degradation [2]: B (ERα % degradation < 80%) | EC50 [3]: < 25 nM | AUC(0-inf) [4, 7]: 2.4 µM·h | clearance [4, 7]: 49.6 mL/min/kg | half-life [4, 7]: 234 min | Vd ([4]; female, CD, plasma, IV, 3.0 mg/kg, read-out: Vdss): 6 L/kg | AUC(0-inf) [4, 8]: 7 µM·h | Cmax [4, 8]: 2500 nM | Tmax [4, 8]: 15 min | half-life [4, 8]: 204 min | F ([4]; PO, 10.0 mg/kg): 88% | AUC(0-inf) [5, 9]: 6.3 µM·h | clearance [5, 9]: 19 mL/min/kg | half-life [5, 9]: 234 min | Vd ([5]; female, SD, plasma, IV, 3.0 mg/kg, read-out: Vdss): 2.9 L/kg | AUC(0-inf) [5, 10]: 11.1 µM·h | Cmax [5, 10]: 5.7 µM | Tmax [5, 10]: 30 min | half-life [5, 10]: 480 min | F ([5]; PO, 10.0 mg/kg): 53%
Compound: CC/C(=C(\c1ccc(O)cc1)c1ccc(/C=C/C(=O)O)cc1)c1ccc(F)cc1Cl [Example 1, (E)-3-(4-((E)-2-(2-chloro-4-fluorophenyl)-1-(4-hydroxyphenyl)but-1-en-1-yl)phenyl)acrylic acid]

IC50 [1]: ≤ 25 nM | ERα % degradation [2]: A (ERα % degradation ≥ 80%)
Compound: C[C@]12CC[C@@H]3c4ccc(O)cc4C[C@@H](CCCCCCCCC[S+]([O-])CCCC(F)(F)C(F)(F)F)[C@H]3[C@@H]1CC[C@@H]2O (stereo partly drawn) [fulvestrant]
turnover of the receptor in patient samples [6]: less than 50%
